Columns and labels:
Format in all cases: in vivo
[1] = tested on: barnyardgrass (Echinochloa crus-galli); experiment: Test B flooded paddy test, barnyardgrass; details: applied to paddy water at 2-leaf stage, 13 to 15 d, scale 0 no effect to 100 complete control
In short: (§1)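 Plants at the 2-leaf stage were flooded to 3 cm above soil, and test compounds were applied directly into the paddy water, which was held at that depth throughout. After 13 to 15 d in a greenhouse, injury was rated visually against untreated controls on a 0–100 scale (0 no effect, 100 complete control).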

[2] = tested on: ducksalad (Heteranthera limosa); experiment: Test B flooded paddy test, ducksalad; details: applied to paddy water at 2-leaf stage, 13 to 15 d, scale 0 no effect to 100 complete control
In short: as §1

[3] = tested on: rice (Oryza sativa); experiment: Test B flooded paddy test, rice; details: applied to paddy water at 2-leaf stage, 13 to 15 d, scale 0 no effect to 100 complete control
In short: as §1

[4] = tested on: sedge, umbrella (small-flower umbrella sedge, Cyperus difformis); experiment: Test B flooded paddy test, umbrella sedge; details: applied to paddy water at 2-leaf stage, 13 to 15 d, scale 0 no effect to 100 complete control
In short: as §1

[5] = tested on: barnyardgrass (Echinochloa crus-galli); experiment: Test A preemergence, barnyardgrass; details: visual rating after approx. 10 d, 0 to 100 scale, 0 no effect, 100 complete control
In short: (§2)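 Herbicidal effect scored by eye on 0–100 (complete control = 100) about 10 d after spraying in a greenhouse. Formulation was a non-phytotoxic solvent blend with surfactant, applied to soil at seeding or to seedlings at the one- to two-leaf stage.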

[6] = tested on: kochia (Kochia scoparia); experiment: Test A preemergence, kochia; details: visual rating after approx. 10 d, 0 to 100 scale, 0 no effect, 100 complete control
In short: as §2

[7] = tested on: ragweed (common ragweed, Ambrosia elatior); experiment: Test A preemergence, ragweed; details: visual rating after approx. 10 d, 0 to 100 scale, 0 no effect, 100 complete control
In short: as §2

[8] = tested on: ryegrass, Italian (Italian ryegrass, Lolium multiflorum); experiment: Test A preemergence, Italian ryegrass; details: visual rating after approx. 10 d, 0 to 100 scale, 0 no effect, 100 complete control
In short: as §2

[9] = tested on: foxtail, giant (giant foxtail, Setaria faberii); experiment: Test A preemergence, giant foxtail; details: visual rating after approx. 10 d, 0 to 100 scale, 0 no effect, 100 complete control
In short: as §2

[10] = tested on: pigweed (Amaranthus retroflexus); experiment: Test A preemergence, pigweed; details: visual rating after approx. 10 d, 0 to 100 scale, 0 no effect, 100 complete control
In short: as §2

[11] = tested on: barnyardgrass (Echinochloa crus-galli); experiment: Test A postemergence, barnyardgrass; details: visual rating after approx. 10 d, 0 to 100 scale, 0 no effect, 100 complete control
In short: as §2

[12] = tested on: kochia (Kochia scoparia); experiment: Test A postemergence, kochia; details: visual rating after approx. 10 d, 0 to 100 scale, 0 no effect, 100 complete control
In short: as §2

[13] = tested on: ragweed (common ragweed, Ambrosia elatior); experiment: Test A postemergence, ragweed; details: visual rating after approx. 10 d, 0 to 100 scale, 0 no effect, 100 complete control
In short: as §2

[14] = tested on: ryegrass, Italian (Italian ryegrass, Lolium multiflorum); experiment: Test A postemergence, Italian ryegrass; details: visual rating after approx. 10 d, 0 to 100 scale, 0 no effect, 100 complete control
In short: as §2

[15] = tested on: foxtail, giant (giant foxtail, Setaria faberii); experiment: Test A postemergence, giant foxtail; details: visual rating after approx. 10 d, 0 to 100 scale, 0 no effect, 100 complete control
In short: as §2

[16] = tested on: wheat (Triticum aestivum); experiment: Test A postemergence, wheat; details: visual rating after approx. 10 d, 0 to 100 scale, 0 no effect, 100 complete control
In short: as §2

[17] = tested on: corn (Zea mays); experiment: Test A postemergence, corn; details: visual rating after approx. 10 d, 0 to 100 scale, 0 no effect, 100 complete control
In short: as §2

[18] = tested on: pigweed (Amaranthus retroflexus); experiment: Test A postemergence, pigweed; details: visual rating after approx. 10 d, 0 to 100 scale, 0 no effect, 100 complete control
In short: as §2

[19] = tested on: blackgrass (Alopecurus myosuroides); experiment: Test A postemergence, blackgrass; details: visual rating after approx. 10 d, 0 to 100 scale, 0 no effect, 100 complete control
In short: as §2

[20] = tested on: galium (catchweed bedstraw, Galium aparine); experiment: Test A postemergence, galium; details: visual rating after approx. 10 d, 0 to 100 scale, 0 no effect, 100 complete control
In short: as §2

O=C(Nc1ccccc1C(F)(F)F)C1C(=O)OCC1c1cccc(C(F)(F)F)c1 (racemic) [Compound 14]
Plant response rating, Flood, Barnyardgrass ([1]; 500 g ai/ha): 0
Plant response rating, Flood, Ducksalad ([2]; 500 g ai/ha): 0
Plant response rating, Flood, Rice ([3]; 500 g ai/ha): 0
Plant response rating, Flood, Sedge, Umbrella ([4]; 500 g ai/ha): 0
Plant response rating, Barnyardgrass ([5]; 125 g ai/ha): 20
Plant response rating, Barnyardgrass ([5]; 500 g ai/ha): 20
Plant response rating, Kochia ([6]; 125 g ai/ha): 0
Plant response rating, Kochia ([6]; 500 g ai/ha): 20
Plant response rating, Ragweed ([7]; 125 g ai/ha): 0
Plant response rating, Ragweed ([7]; 500 g ai/ha): 0
Plant response rating, Ryegrass, Italian ([8]; 125 g ai/ha): 0
Plant response rating, Ryegrass, Italian ([8]; 500 g ai/ha): 20
Plant response rating, Foxtail, Giant ([9]; 125 g ai/ha): 70
Plant response rating, Foxtail, Giant ([9]; 500 g ai/ha): 90
Plant response rating, Pigweed ([10]; 125 g ai/ha): 0
Plant response rating, Pigweed ([10]; 500 g ai/ha): 0
Plant response rating, Barnyardgrass ([11]; 125 g ai/ha): 0
Plant response rating, Barnyardgrass ([11]; 500 g ai/ha): 20
Plant response rating, Kochia ([12]; 125 g ai/ha): 0
Plant response rating, Kochia ([12]; 500 g ai/ha): 0
Plant response rating, Ragweed ([13]; 125 g ai/ha): 0
Plant response rating, Ragweed ([13]; 500 g ai/ha): 0
Plant response rating, Ryegrass, Italian ([14]; 125 g ai/ha): 0
Plant response rating, Ryegrass, Italian ([14]; 500 g ai/ha): 0
Plant response rating, Foxtail, Giant ([15]; 125 g ai/ha): 20
Plant response rating, Foxtail, Giant ([15]; 500 g ai/ha): 70
Plant response rating, Wheat ([16]; 125 g ai/ha): 0
Plant response rating, Wheat ([16]; 500 g ai/ha): 0
Plant response rating, Corn ([17]; 125 g ai/ha): 0
Plant response rating, Corn ([17]; 500 g ai/ha): 0
Plant response rating, Pigweed ([18]; 125 g ai/ha): 0
Plant response rating, Pigweed ([18]; 500 g ai/ha): 0
Plant response rating, Blackgrass ([19]; 125 g ai/ha): 0
Plant response rating, Blackgrass ([19]; 500 g ai/ha): 30
Plant response rating, Galium ([20]; 125 g ai/ha): 0
Plant response rating, Galium ([20]; 500 g ai/ha): 30

O=C(Nc1cccc(F)c1F)C1C(=O)OCC1c1ccc(C(F)(F)F)cc1 (racemic) [Compound 7]
Plant response rating, Flood, Barnyardgrass ([1]; 250 g ai/ha): 0
Plant response rating, Flood, Barnyardgrass ([1]; 1000 g ai/ha): 0
Plant response rating, Flood, Ducksalad ([2]; 250 g ai/ha): 30
Plant response rating, Flood, Ducksalad ([2]; 1000 g ai/ha): 40
Plant response rating, Flood, Rice ([3]; 250 g ai/ha): 0
Plant response rating, Flood, Rice ([3]; 1000 g ai/ha): 0
Plant response rating, Flood, Sedge, Umbrella ([4]; 250 g ai/ha): 0
Plant response rating, Flood, Sedge, Umbrella ([4]; 1000 g ai/ha): 0
Plant response rating, Barnyardgrass ([5]; 125 g ai/ha): 0
Plant response rating, Barnyardgrass ([5]; 500 g ai/ha): 30
Plant response rating, Kochia ([6]; 125 g ai/ha): 0
Plant response rating, Kochia ([6]; 500 g ai/ha): 0
Plant response rating, Ragweed ([7]; 125 g ai/ha): 0
Plant response rating, Ragweed ([7]; 500 g ai/ha): 0
Plant response rating, Ryegrass, Italian ([8]; 125 g ai/ha): 0
Plant response rating, Ryegrass, Italian ([8]; 500 g ai/ha): 0
Plant response rating, Foxtail, Giant ([9]; 125 g ai/ha): 30
Plant response rating, Foxtail, Giant ([9]; 500 g ai/ha): 80
Plant response rating, Pigweed ([10]; 125 g ai/ha): 0
Plant response rating, Pigweed ([10]; 500 g ai/ha): 0
Plant response rating, Barnyardgrass ([11]; 125 g ai/ha): 0
Plant response rating, Barnyardgrass ([11]; 500 g ai/ha): 20
Plant response rating, Kochia ([12]; 125 g ai/ha): 0
Plant response rating, Kochia ([12]; 500 g ai/ha): 0
Plant response rating, Ragweed ([13]; 125 g ai/ha): 0
Plant response rating, Ragweed ([13]; 500 g ai/ha): 0
Plant response rating, Ryegrass, Italian ([14]; 125 g ai/ha): 0
Plant response rating, Ryegrass, Italian ([14]; 500 g ai/ha): 0
Plant response rating, Foxtail, Giant ([15]; 125 g ai/ha): 20
Plant response rating, Foxtail, Giant ([15]; 500 g ai/ha): 50
Plant response rating, Wheat ([16]; 125 g ai/ha): 0
Plant response rating, Wheat ([16]; 500 g ai/ha): 0
Plant response rating, Corn ([17]; 125 g ai/ha): 0
Plant response rating, Corn ([17]; 500 g ai/ha): 0
Plant response rating, Pigweed ([18]; 125 g ai/ha): 0
Plant response rating, Pigweed ([18]; 500 g ai/ha): 0
Plant response rating, Blackgrass ([19]; 125 g ai/ha): 0
Plant response rating, Blackgrass ([19]; 500 g ai/ha): 0
Plant response rating, Galium ([20]; 125 g ai/ha): 0
Plant response rating, Galium ([20]; 500 g ai/ha): 0
